Experimental data taken from US11806393B2, “Flavivirus peptide sequences, epitopes, and methods and uses thereof” (priority 2017, dated 2023).

Key:
Assay type in all cases: cell-based, mouse
[1] = test system: CD8+ T cells; assay: IFNγ ELISPOT, DENV2 S221-infected Ifnar-/- HLA-B*0702 transgenic mice; conditions: HLA-B*0702 mice, 7 days after 2×10^4 FFU DENV2 S221
Description: (§1) Two ZIKV strains, MR766 (Uganda, 1947) and FSS13025 (Cambodia, 2010), were obtained from the World Reference Center for Emerging Viruses and Arboviruses (WRCEVA). The mouse-adapted DENV2 strain S221 is a triple-plaque purified clone derived from DENV2 D2S1038. Both ZIKV and DENV2 were amplified in C6/36 mosquito cells, and viral titers were measured using baby hamster kidney (BHK)-21 cell-based focus forming assay (FFA). For epitope screening, 5-week old mice (female or male) were infected retro-orbitally (R.O.) with either 1×102 FFU of ZIKV FSS13025 or ZIKV MR766, or 2×10^4 FFU of DENV2 S221 in 200 μl 10% FBS/PBS. Seven days after infection, CD8^+ T cells were isolated from splenocytes and used for ELISPOT assay, while the splenocytes were directly used for ICS assay. Additionally, 5-week old mice were inoculated I.P. with 2×10^3 FFU of DENV2 S221 for 4 weeks.
(§2) CD8^+ T cells were isolated from splenocytes using magnetic bead positive selection (Miltenyi Biotec, Germany) 7 days after virus infection. 2×10^5 CD8^+ T cells were stimulated with 1×10^5 LPS-blasts loaded with 10 μg of individual peptide in 96-well flat-bottom plates (IMMOBILON™-P; Millipore, Bedford, Mass.) that were coated with anti-IFNγ mAb (clone AN18; Mabtech, Stockholm, Sweden) in triplicate. Concanavalin A (ConA) was used as positive control. After 20 hours of incubation, biotinylated anti-mouse IFNγ mAb (R4-6A2; Mabtech), followed by ABC peroxidase (Vector Laboratories, Burlingame, Calif., USA) and then 3-amino-9-ethylcarbazole (Sigma-Aldrich, St. Louis, Mo., USA) were added into the wells. […] A peptide inducing a magnitude of >500 SFCs/10^6 CD8^+ T cells was considered as an immunodominant peptide.
The following results are with respect to FIG. 14A and FIG. 14B, where Ifnar^−/− HLA-B*0702 transgenic mice were infected R.O. with 2×10^4 FFU of DENV2 strain S221 for 7 days. CD8^+ T cells isolated from splenocytes were stimulated with each of the 37 ZIKV epitopes identified via IFNγELISPOT to perform (FIG. 14A) IFNγELISPOT and (FIG. 14B) ICS assay. Data represent the average of two independent IFNγELISPOT experiments and two independent ICS experiments (n=7 mice) and are expressed as mean±SEM. Dotted line corresponds to the cutoff value. *, P<0.05.

[2] = test system: CD8+ T cells; assay: IFNγ ELISPOT, ZIKV-infected Ifnar-/- HLA-B*0702 transgenic mice; conditions: HLA-B*0702 mice; for SFC/10^6 CD8+ T cells, MR766: 7 days after 1×10^2 FFU ZIKV MR766
Description: as §1, §2
Two independent experiments performed in triplicate were averaged and the error bars represent the SEM. The data are expressed as the mean number of spot forming cells (SFC) per 10^6 CD8^+ T cells. The criteria for positivity were net SFC per 10^6 cells of >20, and a stimulation index of >2.0 when compared with the negative control. Dotted lines represent the cutoff value. * Indicates a positive response. […] ConA denotes Concanavalin A.

[3] = test system: CD44+ CD4+ T cells; assay: ICS, ZIKV SD001-infected Ifnar1-/- HLA-DRB1*0101 mice; conditions: for cytokines produced by ZIKV-primed CD4+ T cells on peptide stimulation: ZIKV SD001, day 7
Description: Ifnar1^−/− HLA-DRB1*0101 mice were infected retro-orbitally with 1×10^2 FFU of ZIKV strain SD001 for 7 days. Splenocytes were stimulated in vitro with the indicated ZIKV-derived HLA-DRB1*0101-binding peptides for 6 h, and the frequency of CD44^+ CD4^+ T cells producing IFNγ, TNF, or IFNγ plus TNF (A), IL-2 (B), and IL-17 (C) were detected using the ICS assay. Data represent the mean±s.e.m. of four independent experiments (n=3-5 mice/experiment; total 16 mice). *P<0.05, **P<0.01, ***P<0.001, ****P<0.0001 by two-tailed Mann-Whitney test. Negative and positive refer to cells incubated alone or with PMA/ionomycin, respectively. […]
(§3) For the 30-peptide epitope screen, 5-week-old female or male mice were infected retro-orbitally (r.o.) with either 1×10^2 focus-forming units (FFU) of ZIKV SD001 or 2×10^3 FFU of DENV2 S221 in 200 μl of 10% fetal bovine serum in phosphate-buffered saline (FBS/PBS). Seven days after infection, spleens were removed and single-cell splenocyte suspensions were prepared. A total of 1×10^6 splenocytes was plated in each well of a 96-well U-bottom plate and stimulated with individual peptides (20 μg crude peptide per well) for 6 h. One hour into the incubation, brefeldin A (GolgiPlug, BD Biosciences) was added to the cells. Positive and negative controls were splenocytes stimulated with phorbol-12-myristate-13-acetate (PMA, 0.1 μg/ml) and ionomycin (1 μg/ml) or incubated alone, respectively.
(§4) After incubation of splenocytes with peptides or PMA/ionomycin, cells were harvested, washed, and incubated with Fc Block (CD16/CD32 mAb 2.4G2, BD Biosciences), followed by staining with fixable Live/Dead blue viability stain (Life technologies) and the following antibodies: PerCP-Cy5.5-conjugated anti-CD3 mAb (clone 145-2C11, Tonbo), APC-eFluor780-conjugated anti-CD4 mAb (clone GK1.5, Invitrogen), Brilliant Violet (BV) 785-conjugated anti-CD44 mAb (clone IMT, Biolegend), PE-conjugated anti-CD11a (clone M17/4, Biolegend), BV605-conjugated anti-CD49d (clone 9C10(MFR4.B, Biolegend), PE-conjugated anti-CD25 mAb (clone PC61, Biolegend), PE-conjugated or biotin-conjugated anti-CD185 mAb (CXCR5, clone SPRC15; Invitrogen), BV 605-conjugated anti-[…] mAb (PD1, clone 29F.1A12; Biolegend), and/or BV 421-conjugated streptavidin (#405225, Biolegend). Cells were then fixed and permeabilized using Cytofix/Cytoperm solution (BD Biosciences), followed by staining with FITC-conjugated anti-IFNγ mAb (clone XMG1.2, Tonbo), Alexa Fluor 700- or APC-conjugated anti-TNF mAb (clone MP6-XT22, eBioscience), PE-, BV 421-, or BV 711-conjugated anti-IL-2 mAb (clone JES6-5H4, Biolegend), APC-conjugated anti-IL-4 mAb (clone 11B11, Biolegend), PE-conjugated anti-IL-5 mAb (clone TRFK5, eBioscience), BV510-conjugated anti-IL-17A mAb (clone 17B7, eBioscience), and/or Alexa Fluor 700-conjugated anti-FoxP3 mAb (clone FJK-16S, eBioscience). Data were collected using an LSR Fortessa flow cytometer (BD Biosciences) and analyzed using FlowJo software X 10.0.7 (Tree Star).

[4] = test system: CD44+ CD4+ T cells; assay: ICS, naive or DENV2-immune Ifnar1-/- HLA-DRB1*0101 mice challenged with ZIKV; conditions: for CD4+ T cell response to peptide: DENV2-immune mice; for CD4+ T cell response to peptide / expansion of peptide-reactive CD4+ T cells: day 7 after ZIKV challenge; for expansion of peptide-reactive CD4+ T cells: naive mice
From the text: Ifnar1−/−HLA-DRB1*0101 mice were primed intraperitoneally with 2×103 FFU of DENV2 S221 for 4 weeks. Naïve mice and DENV2-immune mice were challenged retro-orbitally with 1×10^4 FFU of ZIKV strain SD001 for 3 or 7 days. Splenocytes were stimulated in vitro with the indicated ZIKV-specific and DENV2/ZIKV-cross-reactive epitopes. The frequency of CD44+ CD4+ T cells producing IFNγ, IFNγ plus TNF, or IL-2 were detected using the ICS assay. (E) The combined data for positive peptide responses in (FIGS. 27A-27D). Numbers in parentheses indicate the number of positive peptides. Data represent the mean±s.e.m. of three or four independent experiments, with a total of 9 mice/group for A and C, 14/group for B, and 15/group for D. *P<0.05, **P<0.01, ***P<0.001, ****P<0.0001 by two-tailed Mann-Whitney test. Negative and positive refer to cells incubated alone or with PMA/ionomycin, respectively.
Five-week-old female or male mice were inoculated intraperitoneally (i.p.) with 2×10^3 FFU of DENV2 S221. […] Positive and negative controls were included in all experiments.
as §4

[5] = test system: CD44+ CD4+ T cells; assay: ICS, DENV2 S221-infected Ifnar1-/- HLA-DRB1*0101 mice; conditions: for cross-reactive response by DENV2-primed CD4+ T cells / cytokines produced by DENV2-primed CD4+ T cells on peptide stimulation: DENV2 S221, day 7
Description: Ifnar1^−/− HLA-DRB1*0101 mice were infected intraperitoneally with 2×10^3 FFU of DENV2 strain […] for 7 days. Splenocytes were stimulated in vitro with the indicated ZIKV-derived HLA-DRB1*0101-binding peptides for 6 h. The frequency of CD44^+ CD4^+ T cells producing IFNγ, TNF, or IFNγ plus TNF (A) or IL-2 (B) were detected using the ICS assay. Data represent the mean±s.e.m. of three independent experiments (n=3-4 mice/experiment; total 10 mice). *P<0.05, **P<0.01, ***P<0.001, ****P<0.0001 by two-tailed Mann-Whitney test. Negative and positive refer to cells incubated alone or with PMA/ionomycin, respectively.
as §3, §4

[6] = 7 days after ZIKV SD001, 6 h stimulation
[7] = 7 days after DENV2 S221, 6 h stimulation

Sequence | SFC/10^6 CD8+ T cells, S221 [1] [SFC/10^6 CD8+ T cells] | SFC/10^6 CD8+ T cells, MR766 [2] [SFC/10^6 CD8+ T cells] | % CD4+ CD44+ T cells (ZIKV) INFγ+ [3, 6] [%] | % CD4+ CD44+ T cells (ZIKV) INFγ+ TNFα+ [3, 6] [%] | cytokines produced by ZIKV-primed CD4+ T cells on peptide stimulation [3] | identification as Th1 epitope (IFNγ, TNF, IL-2 ICS) ([3]; ZIKV-primed CD4+ T cells) | CD4+ T cell response to peptide [4] | expansion of peptide-reactive CD4+ T cells [4] | other results
APTQGSASSL [FSS/MR-NS561-70] | 47 | 98 |  |  |  |  |  |  | 
FGGLKRLPAGLLLGH [C27-41] |  |  | 0.191 | 0.1 | stimulated IFNγ, TNF, and IL-2 production | Th1 epitopes | increased responses | significant expansion | % CD4+ CD44+ T cells (ZIKV) IL-2+ [3, 6]: 0.08%
FLRFTAIKPSLGLIN [C53-67] |  |  | 0.265 |  | produce only IFNγ | Th1 epitopes | increased responses |  | 
GAAFGVMEALGTLPG [NS3601-NS4A12] |  |  | 0.203 | 0.102 | stimulated IFNγ plus TNF production | Th1 epitopes | increased responses | significant expansion | 
GAAFKSLFGGMSWFS [E450-464] |  |  | 0.183 | 0.078 | stimulated IFNγ plus TNF production | Th1 epitopes | increased responses |  | 
GPMPVTHASA [FSS/MR-NS3427-436] | 136 | 204 |  |  |  |  |  |  | SFC/10^6 CD8+ T cells, FSS13025 ([2]; 7 days after 1×10^2 FFU ZIKV FSS13025): 140 SFC/10^6 CD8+ T cells
IKKFKKDLAAMLRII [C81-95] |  |  | 0.19 |  | produce only IFNγ | Th1 epitopes |  | significant expansion | identification as Th17 epitope (IL-17 ICS) ([3]; ZIKV-primed CD4+ T cells): Th17 epitope
KPTVDIEL [FSS/MR-E38-45] | 51 | 103 |  |  |  |  |  |  | 
LALIAAFKVRPALLV [NS2A66-80] |  |  | 0.167 | 0.058 | stimulated IFNγ plus TNF production | Th1 epitopes | increased responses | significant expansion | % CD4+ CD44+ T cells (DENV) INFγ+ [5, 7]: 0.39%; % CD4+ CD44+ T cells (DENV) INFγ+ TNFα+ [5, 7]: 0.343%; % CD4+ CD44+ T cells (DENV) TNFα+ [5, 7]: 0.199%; cross-reactive response by DENV2-primed CD4+ T cells [5]: elicited cross-reactive responses; cytokines produced by DENV2-primed CD4+ T cells on peptide stimulation [5]: induced IFNγ-plus TNF-producing cells
RAIWYMWLGARFLEP [NS5222-236] |  |  | 0.607 | 0.333 | stimulated IFNγ, TNF, and IL-2 production | Th1 epitopes | increased responses | significant expansion | % CD4+ CD44+ T cells (DENV) IL-2+ [5, 7]: 0.643%; % CD4+ CD44+ T cells (DENV) INFγ+ [5, 7]: 0.82%; % CD4+ CD44+ T cells (DENV) INFγ+ TNFα+ [5, 7]: 1.451%; % CD4+ CD44+ T cells (DENV) TNFα+ [5, 7]: 0.8%; cross-reactive response by DENV2-primed CD4+ T cells [5]: elicited cross-reactive responses; cytokines produced by DENV2-primed CD4+ T cells on peptide stimulation [5]: induced cells producing IFNγ, TNF, and IL-2; % CD4+ CD44+ T cells (ZIKV) IL-2+ [3, 6]: 0.21%; % CD4+ CD44+ T cells (ZIKV) TNFα+ [3, 6]: 0.571%; CD4+ T cell response (IFNγ, IL-2, IFNγ plus TNF) ([4]; DENV2-primed mice, day 3 after ZIKV challenge): strong response
SPNKYVVNSSTA [FSS/MR-NS4B210-220] | 49 | 195 |  |  |  |  |  |  | 
